Details: for molar entropy: 101.33 kPa, Small (less than 1 g) adiabatic calorimetry

N[C@@H](Cc1c[nH]c2ccccc12)C(=O)O [L-tryptophan]
molar entropy [J/K/mol]
Details	Crystal	Crystal 1
5 K	0.2245	–
10 K	1.663	–
15 K	4.49	–
20 K	8.314	–
25 K	12.64	–
30 K	17.46	–
35 K	22.45	–
40 K	27.52	–
45 K	32.59	–
50 K	37.66	–
60 K	47.73	–
70 K	57.7	–
79.2 K	66.6	66.6
80 K	–	67.26
90 K	–	76.16
100 K	–	84.89
110 K	–	93.54
120 K	–	102.02
130 K	–	110.25
140 K	–	118.48
150 K	–	126.63
160 K	–	134.61
170 K	–	142.59
180 K	–	150.49
190 K	–	158.39
200 K	–	166.21
210 K	–	174.02
220 K	–	181.75
230 K	–	189.49
240 K	–	197.22
250 K	–	204.87
260 K	–	212.6
270 K	–	220.33
280 K	–	228.07
290 K	–	235.72
298.15 K	–	242.03
300 K	–	243.45
310 K	–	251.1
320 K	–	258.75
330 K	–	266.31
340 K	–	273.88
350 K	–	281.53
360 K	–	289.09
370 K	–	296.66

Details	Triple point temperature [K]
Crystal 2, Adiabatic calorimetry	79.2

From the NIST ThermoML archive (doi:10.1016/j.jct.2016.09.041)
